Experimental data as given in publication PMC7272617 (Scientific Reports, 2020).
Converted amounts (≈) assume the structure as drawn. Where a SMILES comes first, the peptide text is derived from it.

Assays:
[1] = tested on: MDR P. aeruginosa clinical isolate No.14; details: MDR clinical isolate No.14, 24 h
[2] = tested on: MDR P. aeruginosa clinical isolate No.12
[3] = tested on: Salmonella Typhimurium ATCC 13311; details: ATCC 13311, 24 h
[4] = tested on: MDR P. aeruginosa clinical isolate No.3; details: MDR clinical isolate No.3, 24 h
[5] = tested on: MDR P. aeruginosa clinical isolate No.6; details: MDR clinical isolate No.6, 24 h
P. aeruginosa ATCC 27853 = experiment: Transmission electron microscopy (TEM); type: cell-based, Pseudomonas aeruginosa; details: 0.5 × MIC, 2 h; result in words
Experimental: The bacterial cells were treated and prepared with the same conditions as previously described in SEM[8]. The bacterial pellets were washed twice with PBS and post-fixed with 1% osmium tetroxide in PBS for 2 h, after overnight fixing with 2.5% glutaraldehyde. The fixed bacterial cells were washed twice with PBS, followed by dehydration for 15 min in a graded ethanol series (50%, 70%, 90%, and 100%). After placing in absolute acetone for 20 min, these samples were transferred to a mixture of absolute acetone and epoxy resin (1:1 and 1:3) for 1 h each, followed by transfer to pure epoxy resin and held overnight. Ultrathin sections were cut with a glass knife on an ultramicrotome, and post-stained with uranyl acetate and lead citrate. Specimens were observed using a transmission electron microscope (Hitachi HT7700, Japan).

LPS from E. coli O111:B4 = experiment: LPS binding, chromogenic limulus amebocyte lysate (LAL) assay; parameters: species or system Escherichia coli; details: 1 EU/mL LPS, 1 × to 32 × MIC, 37 °C, 30 min; result in words
Experimental: The ability of PA-13 to bind LPS was assessed using a quantitative, chromogenic limulus amebocyte lysate (LAL) according to the manufacturer’s instructions (Thermo Scientific). The LAL test is a sensitive indicator of the presence of free or non-neutralized endotoxin[30]. Stock solutions of peptide were prepared in endotoxin-free water provided with the kit. […] LAL reagent was added and incubated for 10 min at 37 °C, followed by addition of a colorless substrate and incubation for a further 6 min. The reaction was stopped with 25% (vol/vol) glacial acetic acid and the release of p-nitroaniline followed by absorbance at 405 nm. Endotoxin-free water served as a negative control (blank) and was considered 0% LPS binding. After blank subtraction, the percentage of LPS binding was calculated according to the following equation: %LPSbinding=(ODUntreated-ODTreated)/ODUntreated×100

[6] = tested on: Escherichia coli O157:H7 MT strain; details: E. coli O157:H7 MT strain; MHB, 37 °C, 24 h
[7] = tested on: all Gram-positive strains; experiment: Mean MIC and therapeutic index, Gram-positive strains; type: cell-based; details: 5 Gram-positive strains of Table 3
human TLR4 (hTLR4) = experiment: LPS-mediated TLR4 activation, HEK-Blue hTLR4 SEAP reporter; type: cell-based; details: 250 ng/ml LPS of P. aeruginosa serotype 10, 0.98-250 µg/ml peptide, 16 h; result in words
Experimental: Stimulation with LPS activates NF-kB and AP-1, inducing the production of SEAP. Opposing this, the peptide can interact with LPS and inhibit TLR4 signal transduction, and so decrease production of SEAP. The hydrolysis of substrate by SEAP produces a purple/blue color.
Briefly, HEK-Blue hTLR4 cells (3 × 10^4 cells/well) were seeded in 96-well plates and incubated at 37 °C in an air atmosphere containing 5% CO2 for 24 h. These cells were further incubated with 250 ng/ml LPS of P. aeruginosa serotype 10 (Sigma) and different concentrations of PA-13 (0.98-250 µg/ml) for 16 h. After incubation, supernatants were collected and incubated with QUANTI-Blue™ (InvivoGen). The absorbance of SEAP was monitored at 620 nm. The results were calculated from at least three independent experiments.

[8] = tested on: MDR P. aeruginosa clinical isolate No.11; details: MDR clinical isolate No.11, 24 h

**Q.** What does the source list for `CC[C@H](C)[C@H](NC(=O)[C@H](CCCNC(=N)N)NC(=O)[C@H](CCCCN)NC(=O)[C@H](C)NC(=O)[C@@H](NC(=O)[C@@H](N)CCCCN)[C@@H](C)CC)C(=O)N[C@@H](Cc1c[nH]c2ccccc12)C(=O)N[C@@H](CCCCN)C(=O)N[C@H](C(=O)N[C@@H](CC(C)C)C(=O)N[C@@H](CCCNC(=N)N)C(=O)N[C@@H](CCCNC(=N)N)C(=O)N[C@@H](CCCNC(=N)N)C(N)=O)[C@@H](C)CC` [PA-13] (H-KIAKRIWKILRRR-NH2; N-terminus assumed)?
**A.** MIC [1]: 7.81 µg/mL (≈ 4.5 µM); MIC [2]: 3.91 µg/mL (≈ 2.25 µM); MIC [3]: 1.95 µg/mL (≈ 1.12 µM); MIC [4]: 7.81 µg/mL (≈ 4.5 µM); MIC [5]: 7.81 µg/mL (≈ 4.5 µM); membrane integrity and intracellular alterations (TEM) (P. aeruginosa ATCC 27853): disrupted cell membrane with visible pores and leakage of cellular contents; LPS binding activity (LPS from E. coli O111:B4): dose-dependent LPS binding activity; MIC [6]: 31.25 µg/mL (≈ 18 µM); GM (Gr.+ strains): geometric mean of MIC values from all Gram-positive strains [7]: 67.19 µg/mL; inhibition of LPS-mediated TLR4 activation (human TLR4 (hTLR4)): dose-dependent inhibition; MIC [8]: 7.81 µg/mL (≈ 4.5 µM)
